# According to patent US8324238B2:
# Read-outs that look alike come from different tables or passages of the source.
# How the values were obtained:
# [1] = test system: Bone Marrow Cells of Male Mice; assay: Micronucleus test in bone marrow cells of male mice (Example 14); conditions: 70 mg/kg intraperitoneally
# Method: 70 mg/kg intraperitoneally administration of CPA is used as a positive control dosage (seven male ICR mice are used in each group). Twenty-four hours after single injection administration, all animals are sacrificed and the changes on the number of polychromatic erythrocyte with one or more nuclei (MNPCE) are evaluated with the changes on the total white blood cells and difference counts on the neutrophils and lymphocytes on the prepared blood. In addition, PCE/(PCE+normochromatic erythrocytes (NCE)) ratio are calculated by counting 500 erythrocytes for detecting possibility of cytotoxicity.
# [2] = test system: male ICR mice; assay: Mouse toxicity test, intraperitoneal (Example 6)
# Method: Male ICR mice are divided into six dose groups (five mice per group), and then fasted (no food is given except water) for 24 hours. […] A median lethal dose (LD50), an approximate lethal dose, and a maximum tolerate dose are determined after observation for 14 days.
# Necropsy and histopathology findings are also performed.
# [3] = mouse, in vivo
# Method: Seven week old male mice (ICR CD-1), 28-31 g of body weight upon receipt, are used.
# Blood is sampled at 0.25, 0.5, 1, 1.5, 2, 3, 4, and 5 hours after dosing by orbital puncture.
# [4] = in vivo
# [5] = Pharmacokinetic study after intravenous administration in rats (Example 10); conditions: 10 mg/kg i.v. in male SD rats
# [6] = Solubility of various salts in distilled water, converted into free base (Example 4B); conditions: room temperature, converted into the corresponding solubilities of free base
# [7] = Solubility of various salt forms in various solvents at room temperature (Example 4A); assay type: physicochemical; conditions: read-out: Salt Form Solubility
# [8] = test system: gram positive bacteria, gram negative bacteria, methicillin resistant bacteria, penicillin resistant bacteria, and the known quinolone resistant strains; conditions: cited from earlier work
# [9] = See Korean Patent No. 10-566346; cited from earlier work
# [10] = 24 hours after single injection
# [11] = male ICR mice, intraperitoneal, 14 days observation
# [12] = male, ICR, mouse, in vivo, ip, 14 days
compound,measurement,setting,value
"O=P1(N(CCCl)CCCl)NCCCO1 (stereo not shown) [CPA, cyclophosphamide]",MNPCEs 2000 PCEs,[1]; [10],71.86 ± 10.43
same,PCE(PCE + NCE) ratio,[1]; [10],0.36 ± 0.07
same,Proportions among 100 leukocytes (%) Lymphocytes,[1]; [10],75.71 ± 9.20%
same,Proportions among 100 leukocytes (%) Neutrophils,[1]; [10],21.71 ± 9.45%
same,Total leukocyte numbers,[1]; [10],2.36 ± 0.55 ×10^3 cells mm^3
same,Change of MNPCE,[1]; CPA treated group,significant increase of MNPCE
same,Loss of Locomotion,"[1]; male ICR mice, single",0/7
same,Mortality,"[1]; male ICR mice, single",0/7
CON=C1CN(c2nc3c(cc2F)c(=O)c(C(=O)O)cn3C2CC2)CC12CNC2 [Formate],Approximate lethal dose,[2]; [11],500 to 1000 mg/kg
same,Median lethal dose,[2]; [11],716.24 mg/kg
same,Maximum tolerate dose,[2]; [12],500 mg/kg
CON=C1CN(c2nc3c(cc2F)c(=O)c(C(=O)O)cn3C2CC2)CC12CNC2.Cl [Hydrochloride],Approximate lethal dose,[2]; [11],250 to 500 mg/kg
same,Maximum tolerate dose,[2]; [11],250 mg/kg
same,Median lethal dose,[2]; [11],481.93 mg/kg
same,C last,"[3]; iv, 10 mg/kg",67 ng/mL
same,Half-life,"[3]; iv, 10 mg/kg",1.259 h
same,T last,"[3]; iv, 10 mg/kg",4.0 h
same,Half-life,"[3]; po, 100 mg/kg",2.205 h
same,Fibrous peritonitis,[4],severe fibrous peritonitis
same,AUC 0-5 hr,[5],6.070 ± 0.731
same,AUC inf,[5],6283 ± 804 ng·h/mL
same,C last,[5],137 ± 42 ng/mL
same,Half-life,[5],1.061 ± 0.093 h
same,T last,[5],5.0 ± 0.0 h
[Mg] [Magnesium],Solubility,[6],20 µg/mL
CON=C1CN(c2nc3c(cc2F)c(=O)c(C(=O)O)cn3C2CC2)CC12CNC2 [Methanesulfonate],Approximate lethal dose,[2]; [11],500 to 1000 mg/kg
same,Median lethal dose,[2]; [11],716.24 mg/kg
same,Maximum tolerate dose,[2]; [12],500 mg/kg
CON=C1CN(c2nc3c(cc2F)c(=O)c(C(=O)O)cn3C2CC2)CC12CNC2 [Parent Compound],Solubility,"[7]; aqueous solution with a pH of 1.2, simulated gastric fluid, pH 1.2, room temperature",7700 µg/mL
same,Solubility,"[7]; aqueous solution with a pH of 6.8, aqueous buffer, pH 6.8, room temperature",38 µg/mL
same,Solubility,"[7]; solvent of pH 4.0, aqueous buffer, pH 4.0, room temperature",6490 µg/mL
same,Antimicrobial activity,[8],excellent antimicrobial activity
same,Aqueous solubility,[9],low
CON=C1CN(c2nc3c(cc2F)c(=O)c(C(=O)O)cn3C2CC2)CC12CNC2 [Phosphate],Approximate lethal dose,[2]; [11],250 to 500 mg/kg
same,Median lethal dose,[2]; [11],356.91 mg/kg
same,Maximum tolerate dose,[2]; [12],250 mg/kg
O=C(O)c1ccccc1O [Salicylate],Solubility,[6],110 µg/mL
Fumarate,Solubility,[6],630 µg/mL
Maleate,Solubility,[6],180 µg/mL
Mandelate,Solubility,[6],1010 µg/mL
